This is an account of results in patent publication US6583145B1, “Thio-oxindole derivatives” (Wyeth, priority 1999, dated 2003).

The structures appear in SMILES notation.

As a reminder, the melting point is the temperature of the solid-liquid transition.

One data set relates to rat uterine decidualization. The experiment in a line: Rat decidualization assay. The conditions noted are these: s.c.; average of the dose-response curves.
On to `C#C[C@]1(O)CC[C@H]2[C@@H]3CCC4=CC(=O)CC[C@@H]4[C@H]3C(=C)C[C@@]21CC` [3-Ketodesogestrel], for which the “Estimated average EC50 (decidual response)” value is reported as 0.10 mg/kg.

Tested on in the next data set: not given
Experiment: not given
Details: not given
As to `N#Cc1cccc(-c2ccc3c(c2)C2(CCCCC2)C(=S)N3)c1` [Example 2, 3-(1′,2′-Dihydro-2′-thioxospiro[cyclohexane-1,3′-[3H]indol]-5′-yl)benzonitrile], the melting point is > 231 °C (dec.).

`CC1(C)C(=S)Nc2ccc(-c3coc(C#N)c3)cc21` [Example 18, 4-(3,3-Dimethyl-2-thioxo-2,3-dihydro-1H-indol-5-yl)-2-furonitrile] returned a melting point of 188 to 191 °C.

In turn, `ON=C1Nc2ccc(-c3ccc(F)cc3)cc2C12CCCCC2` [Example 47, 5′-(4-Fluorophenyl)spiro[cyclohexane-1,3′-[3H]indol]-2′(1′H)-one Oxime] registered a melting point of 205 to 208 °C.

As to `COc1cccc(-c2ccc3c(c2)C2(CCCCC2)C(=NO)N3)c1` [Example 49, 5′-(3-Methoxyphenyl)spiro[cyclohexane-1,3′-[3H]indol]-2′(1′H)-one Oxime], the melting point is 101 to 104 °C.

`N#Cc1cccc(-c2ccc3c(c2)C2(CCCCC2)C(=NO)N3)c1` [Example 51, 5′-(3-Cyanophenyl)spiro[cyclohexane-1,3′-[3H]indol]-2′(1′H)-one Oxime]: the melting point lay within 198 to 200 °C.
